Measurements from US20060293395A1, “Methods for treating a mammal before, during and after cardiac arrest” (priority 2004, published 2006).
Entries after “also recorded” stand apart in the source; their conditions may differ.

Tests used:
[1] = test system: Male Sprague-Dawley rats; assay: Example 2: dobutamine vs levosimendan for post-resuscitation myocardial failure, 8 min untreated VF + 6 min precordial compression; assay type: in vivo, rat
Procedure: The animals were anesthetized following intraperitoneal injection of 45 mg kg^−1 pentobarbital. […] No anesthetic agent was administrated during the 30 minute interval prior to inducing cardiac arrest.
Pressures were measured with a high sensitivity pressure transducer (Model 42584-01; Abbott Critical Care System, North Chicago, Ill.). The optimally damped frequency response of the system was 22 Hz. […] Guided by pressure monitoring, the catheter was slowly withdrawn into the right atrium. Right atrial pressure was measured with reference to the mid-chest with another high sensitivity pressure transducer (Abbott model 42584-01). This catheter also served as an injection site for the thermal tracer. A 4 F polyethylene catheter (model C-PMS401J; Cook Critical Care, Bloomington, Ind.) was advanced through the right external jugular vein into the right atrium. A precurved guide wire supplied with the catheter was then advanced through the catheter into the right ventricle until an endocardial electrogram was observed. Another 23-gauge polyethylene catheter (PE 50) was advanced through the left femoral artery into the abdominal aorta for measurement of aortic pressure with the same Abbott high sensitivity transducer and also for sampling arterial blood. […] The thermocouple provided for measurements of blood temperature and thermodilution cardiac output. […] An additional PE 50 catheter was advanced into right femoral vein for drug infusion. EKG lead II was continuously recorded.
Experimental Procedure: A total of 15 animals were investigated. The investigators were blinded to the intervention until immediately prior to inducing VF, at which time the principal investigator opened a sealed envelope for assignment to one of three groups: (1) levosimendan (2) dobutamine or (3) saline placebo. This allowed time for preparation of a fresh dilution of the selected drug. […] Current flow was continued for 3 minutes to prevent spontaneous defibrillation as previously described (Von Planta I, Weil MH. Cardiopulmonary resuscitation in the rat. J Appl Physiol. 1988;65(6):2641-2647). Ventilation was discontinued after onset of VF. Precordial compression was begun with a pneumatically driven mechanical chest compressor after 8 minutes of untreated VF and continued for 6 minutes. These methods have been extensively exercised and have been well-documented (see Von Plata I (supra)) and Sun SJ, Weil MH, Tang W, et al. Combined effects of buffer and adrenergic agent on postresuscitation myocardial function. J Pharm Exp Ther. 1999;291 :773-777). Coincident with the start of precordial compression, the animals were mechanically ventilated. Tidal volume was established at 6.5 ml per kg animal weight, a frequency of 100 min^−1, and on a FiO2 of 1.0.

[2] = test system: Male Sprague-Dawley rats; assay: Example 1: post-resuscitation myocardial dysfunction after VF cardiac arrest, drug infusion for 240 min post-resuscitation
[3] = test system: Male Sprague-Dawley rats; assay: Example 4: levosimendan bolus during cardiopulmonary resuscitation (VF cardiac arrest); assay type: in vivo, rat; conditions: for ETCO2 / Negative dP/dt / left ventricular diastolic pressure: post-resuscitation (FIG. 23)
Procedure: No anesthetic agents were initially administrated 30 min prior to inducing cardiac arrest. […] Right atrial pressure was measured with a high-sensitivity pressure transducer (model 42584-01; Abbott Critical Care System, North Chicago, Ill.). […] Blood temperature was measured with this sensor. […] Duplicate thermodilution curves were obtained and recorded with the aid of a cardiac output computer (CO-100; Institute of Critical Care Medicine, Palm Springs, Calif.). A PE 50 catheter was advanced through the left femoral artery into the thoracic aorta for sampling arterial blood for analysis of blood gases and for the measurement of aortic pressure with a high-sensitivity pressure transducer (model 42584-01; Abbott Critical Care System). Systolic, diastolic, and the interpreted mean arterial pressure were continuously recorded. […] A 4F polyethylene catheter (model C-PMS-401J; Cook Critical Care, Bloomington, Ind.) was next advanced through the right external jugular vein into the right atrium for inducing VF. A precurved guide wire, supplied with the catheter, was then advanced through the catheter into the right ventricle until an endocardial electrogram was observed. […] Current flow was then reduced to one half and continued for 3 min such as to prevent spontaneous defibrillation. VF was untreated for six min. […] Precordial compressions were performed with a pneumatically driven mechanical chest compressor. These procedures were previously described in greater detail (Von Planta I, supra) and are well-known to those of ordinary skill in the art (see e.g. Tang W, Weil M H, Sun S, Noc M, Yang L, Gazmuri R. Epinephrine increases the severity of postresuscitation myocardial dysfunction. Circulation 1995; 92: 3089-3093 and Sun S, Weil MH, Tang W, Povoas H, Mason E. Combined effect of buffer and adrenergic agent on postresuscitation myocardial function. Pharmacology 1999; 291 (2): 773-777).
Coincident with start of precordial compression, the animals were mechanically ventilated.

[4] = 20 μg/kg bolus during VF, vs placebo
[5] = 4-hour interval following resuscitation, vs saline placebo (FIG. 22)

C[C@@H]1CC(=O)NN=C1c1ccc(NN=C(C#N)C#N)cc1 [Levosimendan]
mean arterial pressure (MAP) ([1]; between the three groups): no significant differences
duration of survival ([1]; observed over 72 hours, least with saline placebo (FIG. 15)): maximal
left ventricular diastolic (filling) pressures ([1]; post-resuscitation): significantly lesser increases
cardiac index ([1]; post-resuscitation (FIG. 13)): significant increases in cardiac index
dP/dt40 ([1]; vs saline placebo (FIG. 14)): Significantly greater
−dP/dt ([1]; vs saline placebo (FIG. 14)): Significantly greater
arterial pressures ([2]; among the three groups, at PR10 and after administration of the drugs (FIG. 4)): No significant differences
cardiac index ([2]; post-resuscitation (FIG. 6)): comparable increases in cardiac index
contractility as reflected in the dP/dt40 ([2]; post-resuscitation (FIG. 9)): consistently greater increases in contractility
stroke volume ([2]; post-resuscitation, initially (FIG. 7)): significantly greater stroke volumes
left ventricular diastolic (filling) pressures ([2]; vs control and dobutamine-treated animals (FIG. 11)): substantially lower and near normal
post-resuscitation survival ([2]; vs dobutamine and placebo (FIG. 12)): significantly longer post-resuscitation survival
systemic vascular (arterial) resistance ([2]; vs placebo-treated controls (FIG. 8)): Comparable and significant reductions
cumulative number of electrical shocks required for successful defibrillation [3, 4]: significantly less
interval of CPR prior to successful resuscitation [3, 4]: significantly shorter
MAP [3, 5]: Significantly greater; also recorded: increases
cardiac index [3, 5]: Significantly greater; also recorded: increases
dP/dt40 [3, 5]: Significantly greater; also recorded: increases
CPP ([3]; levosimendan vs placebo controls, prior to/or after administration): No differences
ST segment elevation ([3]; post-resuscitation): lesser
ETCO2 [3]: increases
Negative dP/dt [3]: increases
left ventricular diastolic pressure [3]: decreased
ETCO2 ([3]; listed as levosimendan): increased
Negative dP/dt ([3]; listed as levosimendan): increased
left ventricular diastolic pressure ([3]; listed as levosimendan): reduction
duration of post-resuscitation survival ([3]; vs placebo): significantly increased
peripheral arterial resistance (PAR) ([3]; vs saline placebo (FIG. 24)): significantly decreased
